{
  "source": "paper PMC7125978",
  "about": "(Bioorganic & Medicinal Chemistry, 2010)",
  "key": {"CEM cell extract": {"tested_on": "CEM cell extract", "assay": "Prodrug conversion in crude cell extracts", "type": "in vitro ADME, human", "details": "for efficiency of conversion among the prodrugs: similar trend in HeLa and MDCK cell extracts"}, "[1]": {"tested_on": "Respiratory syncytial virus (HeLa)", "type": "cell-based, respiratory syncytial virus (RSV) strain Long", "details": "relative to ribavirin (1)"}, "Punta toro virus (Vero)": {"tested_on": "Punta toro virus (Vero)", "assay": "microbe, parasite or virus in culture", "type": "cell-based"}, "[2]": {"tested_on": "Influenza A/H3N2 subtype (MDCK)", "type": "cell-based, influenza virus type A (H3N2)"}, "HCV (Huh-5–2)": {"tested_on": "HCV (Huh-5–2)", "assay": "HCV subgenomic replicon luciferase assay in Huh 5-2 cells", "type": "cell-based, hepatitis C virus (HCV)"}, "uninfected cells": {"tested_on": "uninfected cells", "details": "for Cytotoxicity MCC: minimum cytotoxic concentration, microscopically detectable alteration of cell morphology"}, "several viruses": {"tested_on": "several viruses", "type": "cell-based"}, "Vaccinia virus (HEL)": {"tested_on": "Vaccinia virus (HEL)", "type": "cell-based, vaccinia virus Lederle strain"}, "[3]": {"details": "cell extract, 37 °C, after 60 min of incubation"}},
  "data": [
    {"smiles": "C[C@H](NP(=O)(OC[C@H]1O[C@@H](n2cnc(C(N)=O)n2)[C@H](O)[C@@H]1O)Oc1cccc2ccccc12)C(=O)OCc1ccccc1", "note": "(stereo partly drawn) [Compound 13, ribavirin-5′-[1-naphthyl(benzoxy-L-alaninyl)] phosphate]", "values": [
      {"measurement": "conversion of isomer tR 19.3 min to metabolite tR 20.2 min", "setting": "CEM cell extract; cell extract, 37 °C, before second isomer (tR 19.0 min) started to be converted", "result": "≥ 95", "unit": "%"},
      {"measurement": "fold less active than ribavirin, respiratory syncytial virus", "setting": "[1]", "result": "about threefold"},
      {"measurement": "EC50", "setting": "Punta toro virus (Vero); Punta Toro virus, Vero, read-out: Antiviral activity EC50, Punta toro virus (Vero)", "result": "> 100", "unit": "µM"},
      {"measurement": "fold lower potency than ribavirin, influenza virus", "setting": "[2]", "result": "~2", "unit": "fold"},
      {"measurement": "potency relative to ribavirin, HCV subgenomic replicon replication", "setting": "HCV (Huh-5–2)", "result": "equipotent to ribavirin"},
      {"measurement": "Cytotoxicity MCC", "setting": "uninfected cells", "result": ">100", "unit": "µM"}
    ]},
    {"smiles": "NC(=O)c1ncn([C@@H]2O[C@H](COP(=O)(N[C@@H](Cc3ccccc3)C(=O)OCc3ccccc3)Oc3cccc4ccccc34)[C@@H](O)[C@H]2O)n1", "note": "(stereo partly drawn) [Compound 14, ribavirin-5’-[1-naphthyl(benzoxy-L-phenylalaninyl)] phosphate]", "values": [
      {"measurement": "antiviral activity, all the viruses tested", "setting": "several viruses", "result": "no or borderline activity"},
      {"measurement": "conversion of both diastereoisomers (not separable) to metabolite tR 20.2 min", "setting": "CEM cell extract; CEM cell extract, 37 °C, within 20 min", "result": 80, "unit": "%"},
      {"measurement": "efficiency of conversion among the prodrugs", "setting": "CEM cell extract; CEM cell extract", "result": "most efficiently converted"},
      {"measurement": "Cytotoxicity MCC", "setting": "uninfected cells", "result": ">100", "unit": "µM"}
    ]},
    {"smiles": "NC(=O)c1ncn([C@@H]2O[C@H](COP(=O)(NCC(=O)OCc3ccccc3)Oc3cccc4ccccc34)[C@@H](O)[C@H]2O)n1", "note": "(stereo partly shown) [Compound 15]", "values": [
      {"measurement": "fold superior to ribavirin, vaccinia virus replication", "setting": "Vaccinia virus (HEL)", "result": "3–5 fold"},
      {"measurement": "efficiency of conversion among the prodrugs", "setting": "CEM cell extract; CEM cell extract", "result": "least efficiently converted"},
      {"measurement": "conversion of isomer tR 18.8 min to tR 20.2", "setting": "CEM cell extract; [3]", "result": 10, "unit": "%"},
      {"measurement": "levels of isomer tR 18.5", "setting": "CEM cell extract; [3]", "result": "virtually unaltered"},
      {"measurement": "fold less active than ribavirin, respiratory syncytial virus", "setting": "[1]", "result": "about threefold"},
      {"measurement": "fold superior to ribavirin, Punto Toro virus replication", "setting": "Punta toro virus (Vero); relative to ribavirin", "result": "3–5 fold"},
      {"measurement": "Cytotoxicity MCC", "setting": "uninfected cells", "result": ">100", "unit": "µM"}
    ]},
    {"smiles": "NC(=O)c1ncn([C@@H]2O[C@H](CO)[C@@H](O)[C@H]2O)n1", "note": "[Ribavirin, 1-β-D-ribofuranosyl-1,2,4-triazole-3-carboxamide, reference compound]", "values": [
      {"measurement": "toxicity to uninfected cells", "setting": "uninfected cells; at 100 μM", "result": "non-toxic"},
      {"measurement": "Cytotoxicity MCC", "setting": "uninfected cells", "result": ">100", "unit": "µM"}
    ]}
  ]
}
